According to paper PMC4632086, “Effects and possible mechanisms of action of acacetin on the behavior and eye morphology of Drosophila models of Alzheimer’s disease” (Scientific Reports, 2015):

What was measured:
[1] = tested on: human BACE-1 mRNA; assay: Real-time qRT-PCR, human BACE-1 mRNA in elav < APP/BACE-1 flies; assay type: in vivo, Drosophila melanogaster; settings: 100, 300, and 500 μM; 20-day-old males
Protocol: Real-time qRT-PCR with SYBR Green dye was performed to determine whether acacetin affected the expression levels of the human APP and BACE-1 mRNAs in the transgenic flies. The elav < APP/BACE-1 and elav < GFP flies were cultured from the egg stage in vials, as stated previously. The controls received 0.1% DMSO only. The total RNA was extracted from 30 heads (30 mg) of male elav < APP/BACE-1 and elav < GFP flies (20 days old) using the RNeasy Mini Kit (Qiagen, Hilden, Germany) according to the manufacturer’s instructions. The residual genomic DNA was removed using RQ1 RNase-Free DNase (Promega, Fitchburg, WI, USA), and 1 μg of the total RNA from each sample was used for complementary DNA (cDNA) synthesis with an oligo (dT) 12–18 primer (Invitrogen, Carlsbad, CA, USA) according to the protocol of the SuperScript III Reverse Transcriptase Kit. Real-time qRT-PCR was performed in 96-well plates using the StepOne Plus Real-Time PCR System (Applied Biosystems, Darmstadt, Germany). […] The mRNA expression levels of the target genes were normalized to the mRNA expression level of the housekeeping gene rp 49 that encodes the Drosophila ribosomal protein 49, and analyzed by the 2^–ΔΔCT method using the StepOne Software v2.3 and DataAssist Software (Applied Biosystems). The results are expressed as the means ± SEs of duplicate samples from three independent experiments.

[2] = tested on: elav < APP/BACE-1 flies; assay: Lifespan assay; assay type: in vivo, Drosophila melanogaster; settings: males
Protocol: Groups of 20 newly emerged male elav < APP/BACE-1 flies, cultured in vials as stated previously, were separately transferred to vials containing media supplemented with acacetin (100, 300, and 500 μM) every 4 days. The controls received 0.1% DMSO. The median life time (T1/2) was defined as the time when the survivor function equaled 50%, because median survivorship is a more reliable index than mean survival time, as described by Chakraborty and colleagues. All treatments were repeated 10 times using 20 males per replicate.

[3] = tested on: Aβ; assay: Western blot, Aβ in heads of elav < APP/BACE-1 flies; assay type: in vivo, Drosophila melanogaster; settings: 20-day-old males
Protocol: (§1) The elav < APP/BACE-1 flies were cultured from the egg stage, as described previously. The lysates were obtained from the heads of 50 male flies (20 days old) by placing the heads in 100 μL RIPA buffer (pH 8.0) containing a 1% protease inhibitor cocktail. The controls received 0.1% DMSO. The lysates were centrifuged at 14,000 rpm for 30 min at 4 °C. The protein content of the supernatant was determined using a Bradford Protein Assay kit (Sigma-Aldrich) and BSA was used as the standard. The total proteins (30 μg/sample for APP and BACE-1 detection; 70 μg/sample for Aβ detection) were mixed with an equal volume of 5× sample buffer[81] containing 40 mM of DL-dithiothreitol, boiled for 10 min, and then loaded onto 8, 10, and 12% sodium dodecyl sulfate-polyacrylamide gels using a Mini-Protean 3 electrophoresis cell (Bio-Rad, Hercules, CA, USA) for APP, APP-CTF (APP-αCTF and APP-βCTF) and AICD, BACE-1, and Aβ detection, respectively. After electrophoresis at 110 V in 2 h, the proteins from the gels were transferred onto a polyvinyl difluoride membrane (Pall Corporation, Pensacola, FL, USA) using an electroblotting apparatus. The membrane was then blocked with 5% skim milk (BD Difco, Flanklin Lakes, NJ, USA) in PBS containing 0.1% (v/v) Tween-20 (0.1% PBS-T) at room temperature for 1 h, and further incubated overnight at 4 °C with a 1:4,000 dilution of an anti-APP C-terminal antibody to detect the cleaved APP product, a 1:1,000 dilution of anti-BACE-1, and a 1:1,000 dilution of anti-amyloid (4G8). After washing with 0.1% PBS-T three times at 10 min intervals, the membranes were further incubated for 2 h with a goat anti-rabbit IgG H&L (HRP) secondary antibody at a1:4,000 dilution for APP and BACE-1 and a goat anti-mouse lgG-HRP at a 1:5,000 dilution for β-amyloid. […] The differences in protein expression were quantified using a Molecular Imager Gel Doc XR system (Bio-Rad, Hercules, CA, USA) and normalized to actin expression on the same membrane. The results are expressed as the means ± SEs of duplicate samples from three independent experiments.

[4] = tested on: human BACE-1; assay: Western blot, BACE-1 protein in heads of elav < APP/BACE-1 flies; assay type: in vivo, Drosophila melanogaster; settings: 20-day-old males
Protocol: as §1

[5] = tested on: APP intracellular domain (AICD); assay: Western blot, AICD in heads of elav < APP/BACE-1 flies; assay type: in vivo, Drosophila melanogaster; settings: 20-day-old males
Protocol: as §1

[6] = tested on: APP-CTF; assay: Western blot, APP-CTF in heads of elav < APP/BACE-1 flies; assay type: in vivo, Drosophila melanogaster; settings: 100, 300, and 500 μM; 20-day-old males
Protocol: The elav < APP/BACE-1 flies were cultured from the egg stage, as described previously. The lysates were obtained from the heads of 50 male flies (20 days old) by placing the heads in 100 μL RIPA buffer (pH 8.0) containing a 1% protease inhibitor cocktail. The controls received 0.1% DMSO. The lysates were centrifuged at 14,000 rpm for 30 min at 4 °C. The protein content of the supernatant was determined using a Bradford Protein Assay kit (Sigma-Aldrich) and BSA was used as the standard. The total proteins (30 μg/sample for APP and BACE-1 detection; 70 μg/sample for Aβ detection) were mixed with an equal volume of 5× sample buffer[81] containing 40 mM of DL-dithiothreitol, boiled for 10 min, and then loaded onto 8, 10, and 12% sodium dodecyl sulfate-polyacrylamide gels using a Mini-Protean 3 electrophoresis cell (Bio-Rad, Hercules, CA, USA) for APP, APP-CTF (APP-αCTF and APP-βCTF) and AICD, BACE-1, and Aβ detection, respectively. […] The differences in protein expression were quantified using a Molecular Imager Gel Doc XR system (Bio-Rad, Hercules, CA, USA) and normalized to actin expression on the same membrane. The results are expressed as the means ± SEs of duplicate samples from three independent experiments.

[7] = tested on: elav < APP/BACE-1 flies; assay: Fly eclosion rate (pupation and emergence); assay type: in vivo, Drosophila melanogaster; settings: 100, 300, and 500 μM
Protocol: The pupation and emergence rates were determined according to the method of Tamura et al.[78]. The elav < APP/BACE-1 flies were cultured from the egg stage in vials, as stated previously. Groups of 50 third instar larvae climbing on the wall were transferred into vials containing fresh media. The treated and control (0.1% DMSO only) flies were grown under the same conditions as those used for fly maintenance. The numbers of pupae and adults were determined. All treatments were repeated four times using 50 larvae per replicate.

[8] = biological target: T1, recombinant human BACE-1 (Homo sapiens, UniProt P56817); assay: FRET-based enzyme assay, BACE-1 inhibition; assay type: biochemical
T1 construct: purchased R&D Systems (Minneapolis, MN, USA)
T1 sequence (P56817 46-501): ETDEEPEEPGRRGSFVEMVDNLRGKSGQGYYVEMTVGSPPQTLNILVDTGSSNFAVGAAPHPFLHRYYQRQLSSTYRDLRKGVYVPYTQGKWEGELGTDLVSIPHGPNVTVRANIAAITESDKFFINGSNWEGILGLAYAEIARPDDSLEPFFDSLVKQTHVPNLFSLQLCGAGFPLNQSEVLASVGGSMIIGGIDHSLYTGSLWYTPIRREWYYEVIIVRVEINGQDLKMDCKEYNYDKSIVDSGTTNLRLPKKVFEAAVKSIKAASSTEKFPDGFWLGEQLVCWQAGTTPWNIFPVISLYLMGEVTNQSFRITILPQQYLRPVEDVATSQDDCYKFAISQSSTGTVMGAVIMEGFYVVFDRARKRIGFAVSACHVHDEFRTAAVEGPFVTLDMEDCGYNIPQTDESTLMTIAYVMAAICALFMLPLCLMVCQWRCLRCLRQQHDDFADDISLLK

In the case of COc1ccc(-c2cc(=O)c3c(O)cc(O)cc3o2)cc1 [acacetin], the “human BACE-1 mRNA levels, % of the control levels” value [1] is reported as 82–89%, the “median life time (T1/2)” value ([2]; 100 μM, vehicle 26 days, elav-Gal4/+ 36 days) is reported as 31 days and the lifespan ([2]; 100, 300, and 500 μM, vs vehicle-fed transgenic flies) is reported as “did not significantly increase the lifespan”. The “median life time (T1/2)” value ([2]; 300 and 500 μM) was “did not significantly extend the T1/2”, the “Aβ levels, % of the controls” value ([3]; 100 μM) was 71% and the “Aβ levels, % of the controls” value ([3]; 300 μM) was 72%. The “Aβ levels, % of the controls” value ([3]; 500 μM) was 47%, the “BACE-1 protein levels, % of the control levels” value (shortened to “BACE-1 protein levels, %”) ([4]; 100 μM) was 81% and the “BACE-1 protein levels, %” value ([4]; 300 μM) was 75%. The “BACE-1 protein levels, %” value ([4]; 500 μM) was 74%, the “AICD levels, % of the control levels” value ([5]; 100 μM) was 68% and the “AICD levels, % of the control levels” value ([5]; 300 μM) was 27%. For the same molecule, the “AICD levels, % of the control levels” value ([5]; 500 μM) was 37%, the “APP-CTF, % of the control levels” value [6] was “approximately 80%” and the pupation rate [7] was “nearly normal pupation rates”. For the same molecule, the emergence of flies ([7]; vehicle 76%, elav-Gal4/+ 99%, not significant vs vehicle) was 82–86%, the “fold more potent inhibitor of BACE-1 than maslinic acid” value ([8]; based on IC50 values) was 5.5 fold and the “fold more potent inhibitor of BACE-1 than oleanolic acid” value ([8]; based on IC50 values) was 4.0 fold. The IC50 ([8]; pH 4.5, 1 h at 25 °C, read-out: IC50, μM (95% CL)) was 88.5 µM and the “Slope ± SE” value ([8]; slope of concentration-inhibition fit, listed as Natural acacetin) was 0.4 ± 0.04.
